We go through six compounds from patent US4866076A, “Biologically active compounds” (Smith Kline & French Laboratories Limited, priority 1987, dated 1989).

Where a name gives a salt, the structure may show the parent alone.

This experiment addresses T1, TXA2 receptors (Homo sapiens, UniProt P21731).
T1 construct: from tissue; host or cells: human platelets
T1 sequence (P21731 1-343): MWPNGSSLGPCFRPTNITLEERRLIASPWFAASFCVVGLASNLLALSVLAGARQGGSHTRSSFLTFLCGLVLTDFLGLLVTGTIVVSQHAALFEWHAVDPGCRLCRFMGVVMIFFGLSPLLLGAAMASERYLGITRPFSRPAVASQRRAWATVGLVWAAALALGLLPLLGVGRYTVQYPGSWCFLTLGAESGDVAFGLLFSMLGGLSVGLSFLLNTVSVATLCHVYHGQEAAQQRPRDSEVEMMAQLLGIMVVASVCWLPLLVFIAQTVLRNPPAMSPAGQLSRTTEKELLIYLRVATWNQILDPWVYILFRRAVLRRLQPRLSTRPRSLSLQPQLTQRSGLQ
Nature of the experiment: human platelet binding assay ([^125 I]PTA-OH receptor ligand). Conditions: 50% inhibition of specific [^125 I]PTA-OH binding; human platelets. How it is done:
As indicated above, compounds of the formula (I) have biological activity that is indicative of an ability to antagonise TXA2 receptors. […] The platelet binding assay used was essentially the method described by Mais et al, J. Pharm. Exp. Ther., 1985, 235(3), 729-734 where [^125 I]PTA-OH was used as the receptor ligand. The IC50 values represent the concentration which produces a 50% inhibition of specific [^125 I]PTA-OH binding. The compounds of Examples 1 to 6 were tested in the human platelet binding assays as described above and the results obtained are shown in the Table below: […]
In turn, `O=C(O)c1ccccc1CN1CCc2ccc(S(=O)(=O)Nc3cccc(Cl)c3)cc2C1` [Example 1, 2-[[7-(3-chlorophenylsulphamoyl)-1,2,3,4-tetrahydroisoquinolin-2-yl]methyl]benzoic acid] displayed a half-maximal inhibitory concentration (IC50) of 2600 nM.

On to `O=C(O)c1cccc(CN2CCc3ccc(S(=O)(=O)Nc4cccc(Cl)c4)cc3C2)c1` [Example 2, 3-[[7-(3-Chlorophenylsulphamoyl)-1,2,3,4-tetrahydroisoquinolin-2-yl]methyl]benzoic acid], for which the IC50 is 500 nM.

For `O=C(O)c1ccc(CN2CCc3ccc(S(=O)(=O)Nc4cccc(Cl)c4)cc3C2)cc1` [Example 3, 4-[[7-(3-Chlorophenylsulphamoyl)-1,2,3,4-tetrahydroisoquinolin-2-yl]methyl]benzoic acid], the 50% inhibitory concentration (IC50) worked out at 4000 nM.

The compound `COC(=O)c1ccc(CN2CCc3ccc(S(=O)(=O)Nc4cccc(Cl)c4)cc3C2)o1` [Example 4, methyl-5-[[7-(3-chlorophenylsulphamoyl)-1,2,3,4-tetrahydroisoquinolin-2-yl]methyl]-2-furoate] had an IC50 of 5000 nM.

Compound `O=C(O)c1ccc(CN2CCc3ccc(S(=O)(=O)Nc4cccc(Cl)c4)cc3C2)o1` [Example 5, 5-[[7-(3-chlorophenylsulphamoyl)-1,2,3,4-tetrahydroisoquinolin-2-yl]methyl]-2-furoic acid] had an IC50 of 760 nM.

`O=C(O)c1ccnc(CN2CCc3ccc(S(=O)(=O)Nc4cccc(Cl)c4)cc3C2)c1` [Example 6, 2-[[7-(3-chlorophenylsulphamoyl)-1,2,3,4-tetrahydroisoquinolin-2-yl]methyl]isonicotinic acid hydrochloride] registered a concentration for half-maximal inhibition (IC50) of 2900 nM.

For orientation: IC50 means the concentration needed to halve the response being measured. Low values mean higher potency, high ones lower potency.
